Source: ChEMBL document CHEMBL5335777 (Eur J Med Chem, 2023)
Calls of active or inactive are those of the source. No cut-off for these calls is given here.

Columns and labels:
NCI-H1792 [1] = assay: Antiproliferative activity against human NCI-H1792 cells harboring heterozygous KRAS G12C mutant assessed as inhibition of cell growth incubated for 72 hrs by MTT assay; type: functional, cell-based; settings: NCI-H1792, 72 h
SW1573 = assay: Antiproliferative activity against human SW1573 cells harboring homozygous KRAS G12C mutant assessed as inhibition of cell growth incubated for 72 hrs by MTT assay; type: functional, cell-based; settings: SW1573, 72 h
MIA PaCa-2 = assay: Antiproliferative activity against human MIA PaCa-2 cells harboring homozygous KRAS G12C mutant assessed as inhibition of cell growth incubated for 72 hrs by MTT assay; type: functional, cell-based; settings: MIA PaCa-2, 72 h
NCI-H358 = assay: Antiproliferative activity against human NCI-H358 cells harboring heterozygous KRAS G12C mutant assessed as inhibition of cell growth incubated for 72 hrs by MTT assay; type: functional, cell-based; settings: NCI-H358, 72 h
A549 = assay: Antiproliferative activity against human A549 cells harboring homozygous KRAS G12S mutant assessed as inhibition of cell growth incubated for 72 hrs by MTT assay; type: functional, cell-based; settings: A549, 72 h
SW480 = assay: Antiproliferative activity against human SW480 cells harboring homozygous KRAS G12V mutant assessed as inhibition of cell growth incubated for 72 hrs by MTT assay; type: functional, cell-based; settings: SW480, 72 h
PANC-1 = assay: Antiproliferative activity against human PANC-1 cells harboring heterozygous KRAS G12D mutant assessed as inhibition of cell growth incubated for 72 hrs by MTT assay; type: functional, cell-based; settings: PANC-1, 72 h
LCLC-103H cell line [2] = assay: Antiproliferative activity against human LCLC-103H cells harboring wild type KRAS assessed as inhibition of cell growth incubated for 72 hrs by MTT assay; type: functional, cell-based
BXPC-3 = assay: Antiproliferative activity against human BXPC-3 cells harboring wild type KRAS assessed as inhibition of cell growth incubated for 72 hrs by MTT assay; type: functional, cell-based; settings: BXPC-3, 72 h
[3] = Antiproliferative activity against human HCA-7 cells harboring wild type KRAS assessed as inhibition of cell growth incubated for 72 hrs by MTT assay; type: functional, cell-based, HCA7; settings: HCA-7, 72 h
[4] = Cytotoxicity against human MRC5 cells assessed as inhibition of cell growth incubated for 72 hrs by MTT assay; type: toxicity, cell-based
[5] = Cytotoxicity against HUVEC cells immortalized with TERT assessed as inhibition of cell growth incubated for 72 hrs by MTT assay; type: toxicity, cell-based; settings: human
[6] = Cytotoxicity against human CCD-986Sk cells assessed as inhibition of cell growth incubated for 72 hrs by MTT assay; type: toxicity, cell-based
[7] = Cmax in NOD-SCID mouse at 15 mg/kg, ip administered as single dose and measured upto 48 hrs by HPLC/MS analysis; type: ADME, organism-based; parameters: time < 48 hrs, dose 15 mg/kg, route ip; settings: in vivo
[8] = Tmax in NOD-SCID mouse at 15 mg/kg, ip administered as single dose and measured upto 48 hrs by HPLC/MS analysis; type: ADME, organism-based; settings: in vivo
[9] = Half life in NOD-SCID mouse at 15 mg/kg, ip administered as single dose and measured upto 48 hrs by HPLC/MS analysis; type: ADME, organism-based; settings: in vivo
[10] = AUCt in NOD-SCID mouse at 15 mg/kg, ip administered as single dose and measured upto 48 hrs by HPLC/MS analysis; type: ADME, organism-based; parameters: dose 15 mg/kg, time < 48 hrs, route ip; settings: in vivo
[11] = Volume of distribution in NOD-SCID mouse at 15 mg/kg, ip administered as single dose and measured upto 48 hrs by HPLC/MS analysis; type: ADME, organism-based; settings: in vivo
[12] = Clearance in NOD-SCID mouse at 15 mg/kg, ip administered as single dose and measured upto 48 hrs by HPLC/MS analysis; type: ADME, organism-based; settings: in vivo
[13] = test system: GTPase KRas (Homo sapiens), P01116 [G12C]; assay: Binding affinity to Cys12 residue of GDP bound human KRAS-4B G12C mutant (1 to 169 residues) expressed in Escherichia coli BL21 Rosetta cells at 150 to 500 uM measured after 96 hrs by 1H-15N HSQC NMR spectral analysis; settings: dose 150-500 µM
[14] = test system: GTPase KRas (Homo sapiens), P01116 [G12C]; assay: Binding affinity to Cys51 residue of GDP bound human KRAS-4B G12C mutant (1 to 169 residues) expressed in Escherichia coli BL21 Rosetta cells at 150 to 500 uM measured after 96 hrs by 1H-15N HSQC NMR spectral analysis; settings: dose 150-500 µM
[15] = test system: GTPase KRas (Homo sapiens), P01116 [G12C]; assay: Binding affinity to Cys80 residue of GDP bound human KRAS-4B G12C mutant (1 to 169 residues) expressed in Escherichia coli BL21 Rosetta cells at 150 to 500 uM measured after 96 hrs by 1H-15N HSQC NMR spectral analysis; settings: dose 150-500 µM
[16] = test system: GTPase KRas (Homo sapiens), P01116 [G12C]; assay: Binding affinity to Cys118 residue of GDP bound human KRAS-4B G12C mutant (1 to 169 residues) expressed in Escherichia coli BL21 Rosetta cells at 150 to 500 uM measured after 96 hrs by 1H-15N HSQC NMR spectral analysis; settings: dose 150-500 µM
[17] = test system: GTPase KRas (Homo sapiens), P01116 [G12C]; assay: Covalent binding affinity to GDP-bound human KRAS-4B G12C mutant (1 to 169 residues) expressed in Escherichia coli BL21 Rosetta cells at 200 uM measured after 15 mins by Ellman's assay
[18] = test system: GTPase KRas (Homo sapiens), P01116 [G12C]; assay: Covalent binding affinity to GDP-bound human KRAS-4B G12C mutant (1 to 169 residues) expressed in Escherichia coli BL21 Rosetta cells at 200 uM measured after 4 hrs by Ellman's assay
[19] = test system: GTPase KRas (Homo sapiens), P01116 [G12C]; assay: Covalent binding affinity to GDP-bound human KRAS-4B G12C mutant (1 to 169 residues) expressed in Escherichia coli BL21 Rosetta cells assessed as reduction in free Cys residues at 200 uM measured after 1 hr by Ellman's assay
Homo sapiens [20] = organism: Homo sapiens; assay: Inhibition of GDP-bound human KRAS 149stop G12C mutant expressed in Escherichia coli BL21 Rosetta cells assessed as inhibition of EDTA mediated nucleotide exchange at 250 uM measured after 24 hrs by fluorescence based analysis
Homo sapiens [21] = organism: Homo sapiens; assay: Inhibition of GDP-bound human KRAS 149stop G12C mutant expressed in Escherichia coli BL21 Rosetta cells assessed as inhibition of SOS1 mediated nucleotide exchange at 250 uM measured after 24 hrs by fluorescence based analysis
[22] = (§1) Toxicity in immunodeficient NOD-SCID mouse xenografted with human NCI-H1792 cells harboring KRAS G12C mutant assessed as body weight at 5 to 30 mg/kg, ip administered for 5 times at 5 mg/kg in first week followed by administration at 20 mg/kg 5 times in second week and further administered 30 mg/kg 3 times in third week measured 17 days post treatment initiation and 35 days post tumor transplantation (reference value: 6.6 g); type: organism-based; settings: in vivo, 408 h, dose 5-30 mg/kg, time 17 day
[23] = as §1, with “measured 20” for “measured 17”, “and 38” for “and 35”; type: organism-based; settings: in vivo, 480 h, dose 5-30 mg/kg, time 20 day
[24] = as §1, with “LCLC-103H” for “NCI-H1792”, “harboring wild type” for “harboring”, “KRAS” for “KRAS G12C mutant”, “2.6” for “6.6”; type: organism-based; settings: in vivo, 408 h, dose 5-30 mg/kg, time 17 day
LCLC-103H cell line [25] = assay: Antitumor activity against human LCLC-103H cells harboring wild type KRAS xenografted in immunodeficient NOD-SCID mouse assessed as tumor volume at 5 to 30 mg/kg, ip administered for 5 times at 5 mg/kg in first week followed by administration at 20 mg/kg 5 times in second week and further administered 30 mg/kg 3 times in third week measured 17 days post treatment initiation and 35 days post tumor transplantation by digital caliper based analysis; type: functional; settings: dose 5-30 mg/kg, time 17 day
NCI-H1792 [26] = assay: Antitumor activity against human NCI-H1792 cells harboring KRAS G12C mutant xenografted in immunodeficient NOD-SCID mouse assessed as reduction in tumor growth at 5 to 30 mg/kg, ip administered for 5 times at 5 mg/kg in first week followed by administration at 20 mg/kg 5 times in second week and further administered 30 mg/kg 3 times in third week measured 17 days post treatment initiation and 35 days post tumor transplantation by digital caliper based analysis relative to control; type: functional; parameters: scale not given: the % may be the effect or the level left; settings: dose 5-30 mg/kg, time 17 day
[27] = test system: GTPase KRas (Homo sapiens), P01116 [G12C]; assay: Reversible binding affinity to GDP-bound human KRAS-4B G12C mutant (1 to 169 residues) expressed in Escherichia coli BL21 Rosetta cells by intact LCMS analysis
NCI-H1792 [28] = assay: Antiproliferative activity against human NCI-H1792 cells harboring KRAS G12C mutant assessed as cell viability at 25 uM incubated for 72 hrs by MTT assay relative to control; type: functional; settings: read-out: Activity
NCI-H1792 [29] = assay: Antiproliferative activity against human NCI-H1792 cells harboring KRAS G12C mutant assessed as reduction in cell viability at 2.5 uM incubated for 72 hrs by MTT assay; type: functional, cell-based
[30] = test system: GTPase KRas (Homo sapiens), P01116 [G12C]; assay: Covalent binding affinity to GDP-bound human KRAS-4B G12C mutant (1 to 169 residues) expressed in Escherichia coli BL21 Rosetta cells at 200 uM measured after 1 hr by Ellman's assay
[31] = test system: GTPase KRas (Homo sapiens), P01116 [G12C]; assay: Covalent binding affinity to GDP-bound human KRAS-4B G12C mutant (1 to 169 residues) expressed in Escherichia coli BL21 Rosetta cells assessed as labelling on Cys12 residue by intact LCMS analysis

Compound: O=Cc1c(O)ccc2ccccc12
- IC50 (NCI-H1792 [1]): 11.4 µM
- IC50 (SW1573): 24.2 µM
- IC50 (MIA PaCa-2): 24.5 µM
- IC50 (NCI-H358): 12.3 µM
- IC50 (A549): 43.3 µM
- IC50 (SW480): 44.5 µM
- IC50 (PANC-1): 27.6 µM
- IC50 (LCLC-103H cell line [2]): 32.4 µM
- IC50 (BXPC-3): 46.9 µM
- IC50 [3]: 26.2 µM
- IC50 at 72 h [4]: 25 µM
- IC50 at 72 h [5]: 10.8 µM
- IC50 at 72 h [6]: 66.2 µM
- Cmax [7]: 27400 ng/mL
- Tmax [8]: 0.25 h
- half-life [9]: 4 h
- AUC(0-t) at 48 h [10]: 28300 ng·h/mL
- Vd [11]: 63.6 mL
- CL/F [12]: 0.183 mL/min
- Activity [13]: Active
- Activity [14]: inactive
- Activity [15]: inactive
- Activity [16]: inactive
- Activity [17]: Active
- Activity [18]: 100%
- Activity [19]: Active
- inhibition (Homo sapiens [20]): Active
- inhibition (Homo sapiens [21]): Active
- Activity [22]: 5.2 g
- Activity [23]: 4.9 g
- Activity [24]: 0 g
- Activity (LCLC-103H cell line [25]): 9.2 mm3
- Activity (NCI-H1792 [26]): 32.5%
- Activity [27]: Active
- viability at 25 µM (NCI-H1792 [28]): < 50%
- Activity (NCI-H1792 [29]): Active

Compound: O=C1Nc2cc(Cl)cc(Cl)c2C1=O
- IC50 (NCI-H1792 [1]): 11 µM
- IC50 (SW1573): 23.6 µM
- IC50 (MIA PaCa-2): 13.7 µM
- IC50 (NCI-H358): 16.9 µM
- IC50 (A549): 44.4 µM
- IC50 (SW480): 14.8 µM
- IC50 (PANC-1): 38 µM
- IC50 (LCLC-103H cell line [2]): 30 µM
- IC50 (BXPC-3): 13.1 µM
- IC50 [3]: 9.8 µM
- IC50 at 72 h [4]: 47.9 µM
- IC50 at 72 h [5]: 24.4 µM
- IC50 at 72 h [6]: 42.7 µM
- Cmax [7]: 337 ng/mL
- Tmax [8]: 0.25 h
- half-life [9]: 4.4 h
- AUC(0-t) at 48 h [10]: 169 ng·h/mL
- Vd [11]: 12096 mL
- CL/F [12]: 31.6 mL/min
- Activity [13]: Active
- Activity [14]: inactive
- Activity [15]: inactive
- Activity [16]: inactive
- Activity [18]: 50%
- Activity [30]: Active
- Activity [19]: Active
- Activity [31]: Active
- Activity [22]: 6.9 g
- Activity [23]: 9.1 g
- Activity [24]: 2.8 g
- Activity (LCLC-103H cell line [25]): 13.3 mm3
- Activity (NCI-H1792 [26]): 35.8%
- viability at 25 µM (NCI-H1792 [28]): < 50%
- Activity (NCI-H1792 [29]): Active
